This is an account of results in paper PMC12040169 (PLOS Biology, 2025).

One may read the viability as a read-out of living cells in per cent, often relative to untreated cells.

Each structure is given as a SMILES string.

A short description of the series: in vitro. As to conditions: human, hela cells, % viability.
On to `CC(C)(C)c1csc(Nc2nc3cc4c(cc3s2)OCO4)n1` [CBK287491], for which the viability at 28.5 h, 10 µM was found to be 93.9%.
The figure for `c1coc(-c2nnc(Nc3nc4cc5c(cc4s3)OCO5)o2)c1` [CBK287492] is 89.8%; for `COc1ccc2nc(N3CCc4ccccc4C3)sc2c1` [CBK287493] it is 102%; for `c1c2c(cc3sc(N4CCCC4)nc13)OCCO2` [CBK287496] it is 69.6%.
The figure for `c1ccc2c(c1)CCN(c1nc3cc4c(cc3s1)OCCO4)C2` [CBK287498] is 82.8%.
Regarding `CCn1c(C2CC(=O)N(c3ccc(C)cc3C)C2)nc2ccccc21` (centres unmarked) [CBK287505], the viability at 28.5 h, 10 µM stood at 83.1%.
Regarding `O=c1cc(N2CCN(c3ccccc3)CC2)[nH]c(=O)n1-c1ccccc1Cl` [CBK287506], the viability at 28.5 h, 10 µM was determined as 101%.
For the compound `O=c1cc(Nc2ccc3c(c2)OCO3)[nH]c(=O)n1-c1ccc(Cl)cc1` [CBK287507], the viability at 28.5 h, 10 µM is 86.6%.
Then `Cc1ccccc1-n1c(=O)cc(N2CCN(c3ccc(F)cc3)CC2)[nH]c1=O` [CBK287508], with 95.1%.
The figure for `O=C(CSc1ncnc2ccccc12)NCc1ccco1` [CBK287509] is 98.8%; for `O=C(CSc1ncnc2ccccc12)Nc1nc2ccccc2s1` [CBK287510] it is 85.5%.
In the case of `CC1CCN(C(=O)CSc2ccc3nnc(-c4ccccc4)n3n2)CC1` [CBK287512], the viability at 28.5 h, 10 µM was 77.9%.
As to `O=C(CSc1ccc2nnc(-c3ccccc3)n2n1)Nc1ccccc1` [CBK287513], the viability at 28.5 h, 10 µM is 82.7%.
With `O=C(CSc1ccc2nnc(-c3ccccc3)n2n1)Nc1nccs1` [CBK287516], the viability at 28.5 h, 10 µM is 98.6%.
In the case of `Cc1ccc(-c2nnc3ccc(SCC(=O)NC4CCCC4)nn23)cc1` [CBK287523], the viability at 28.5 h, 10 µM worked out at 88.8%.
Consider `CC(=O)C(Sc1ccc2nnc(-c3ccc(C)cc3)n2n1)C(C)=O` [CBK287525], for which the viability at 28.5 h, 10 µM stood at 98.9%.
Then `O=C(Cn1cnc2c(cnn2-c2ccccc2)c1=O)N1CCc2ccccc21` [CBK287529], with 91.7%.
Consider `Cc1ccccc1NC(=O)Cn1cnc2c(cnn2-c2ccccc2)c1=O` [CBK287530], for which the viability at 28.5 h, 10 µM turned out to be 104%.
Then `Cc1ccc(-n2ncc3c(=O)n(CC(=O)N4CCCCC4)cnc32)cc1` [CBK287532], with 101%; and `Cc1ccc(NC(=O)Cn2cnc3c(cnn3-c3ccc(C)cc3)c2=O)cc1` [CBK287534], with 104%; and `Cc1ccc(-n2ncc3c(=O)n(CC(=O)NC4CCCCC4)cnc32)cc1` [CBK287536], with 78.1%.
Then `Cc1ccc(-n2ncc3c(=O)n(CC(=O)Nc4ccccc4)cnc32)cc1C` [CBK287539], with 87.3%; and `Cc1ccc(Cn2cnc3c(cnn3-c3ccc(C)c(C)c3)c2=O)cc1` [CBK287540], with 108%; and `CC(C)(C)n1ncc2c(=O)n(CC(=O)Nc3ccccc3)cnc21` [CBK287541], with 115%.
The figure for `Cc1ccc(-n2nnc3c(SCC(=O)Nc4ccc(F)cc4)ncnc32)cc1` [CBK287542] is 112%; for `COc1cccc(-n2nnc3c(SCC(N)=O)ncnc32)c1` [CBK287543] it is 75%; for `O=S(=O)(NCCc1csc(-c2cccnc2)n1)c1cccnc1` [CBK287546] it is 91.8%.
Take `O=S(=O)(Nc1ccc(-c2nc3cccnc3s2)cc1)c1ccccc1` [CBK287547]: the viability at 28.5 h, 10 µM amounted to 116%.
The figure for `COc1ccc(-n2c(=O)[nH]cc(C(=O)Nc3cccc(Cl)c3C)c2=O)cc1` [CBK287549] is 118%; for `Cc1ccc(-n2c(=O)[nH]cc(C(=O)Nc3ccc(C)c(F)c3)c2=O)cc1C` [CBK287550] it is 97.5%; for `Cc1ccc(-n2c(=O)[nH]cc(C(=O)Nc3cccc(Cl)c3C)c2=O)cc1C` [CBK287551] it is 101%.
The figure for `CCOc1ccc(NC(=O)c2c[nH]c(=O)n(-c3ccc(F)cc3)c2=O)cc1` [CBK287553] is 107%; for `CCNC(=O)c1cc2c(=O)n3ccccc3nc2n1C` [CBK287556] it is 104%.
The figure for `O=C(Cn1cnc2c(oc3ccccc32)c1=O)Nc1ccc2c(c1)OCO2` [CBK287557] is 118%; for `CC1(C)CC(=O)c2sc(NC(=O)CN3C(=O)CCC3=O)nc2C1` [CBK287558] it is 98.2%.
With `CCC(=O)Nc1ccc(-c2nc3ccccc3[nH]2)cc1` [CBK287561], the viability at 28.5 h, 10 µM was 98.7%.
Take `O=C(Nc1nc(-c2cccnc2)cs1)c1ccccc1` [CBK287569]: the viability at 28.5 h, 10 µM stood at 91.3%.
Then `CC(=O)Nc1ccc2nc(NC(=O)c3ccc4c(c3)OCCO4)sc2c1` [CBK287571], with 101%; and `O=C(O)CCCNc1ncnc2c1oc1ccccc12` [CBK287573], with 101%.
On to `COc1ccc(-n2c(=O)c3ccccc3n(CC(=O)NC3CCCC3)c2=O)cc1` [CBK287574], for which the viability at 28.5 h, 10 µM amounted to 92.2%.
In the case of `Cn1cnnc1SCC(=O)N1CCc2ccccc21` [CBK287576], the viability at 28.5 h, 10 µM was 82.7%.
For `COc1cc(C)c(C)cc1S(=O)(=O)n1cnc2ccccc21` [CBK287578], the viability at 28.5 h, 10 µM turned out to be 89.2%.
Then `COc1cc(C)c(C)cc1S(=O)(=O)n1ccnc1C` [CBK287579], with 108%; and `OCCN1CCN(c2ncnc3scc(-c4ccccc4)c23)CC1` [CBK287582], with 94.6%.
For the compound `COCCNc1ncnc2sc3c(c12)CCCC3` [CBK287583], the viability at 28.5 h, 10 µM was determined as 98.4%.
Consider `O=C(CSc1nnc(-c2ccncc2)o1)Nc1ccccc1` [CBK287586], for which the viability at 28.5 h, 10 µM turned out to be 91.3%.
The figure for `COc1ccc(C(=O)Nc2nnc(-c3ccccc3OC)o2)cc1OC` [CBK287589] is 86.3%; for `COc1ccccc1-c1nnc(NC(=O)COc2ccccc2)o1` [CBK287590] it is 106%.
Regarding `COc1ccc(-c2nnc(NC(=O)C3CCCCC3)o2)cc1` [CBK287592], the viability at 28.5 h, 10 µM turned out to be 83.3%.
In the case of `CCCC(=O)Nc1nnc(-c2ccc(Cl)cc2)o1` [CBK287594], the viability at 28.5 h, 10 µM is 91.8%.
Consider `O=C(Nc1nnc(-c2ccccc2)o1)c1ccc2ncsc2c1` [CBK287598], for which the viability at 28.5 h, 10 µM turned out to be 94.4%.
The figure for `O=C(COc1ccccc1)Nc1nnc(-c2ccccc2)o1` [CBK287599] is 99.8%; for `CN(C)c1cccc(C(=O)Nc2nc3ccc(S(N)(=O)=O)cc3s2)c1` [CBK287602] it is 95.8%.
As to `Cc1ccc(C(=O)Nc2nc3ccc(S(=O)(=O)N(C)C)cc3s2)cc1` [CBK287603], the viability at 28.5 h, 10 µM was determined as 93.1%.
Then `O=S(=O)(c1ccccc1)c1nc(-c2ccco2)oc1NCc1cccnc1` [CBK287610], with 69.5%.
Regarding `OCCN1CCN(C(c2ccccc2)c2sc3ncnn3c2O)CC1` (centres unmarked) [CBK287611], the viability at 28.5 h, 10 µM amounted to 82.5%.
As for `Cc1cc(C)c2sc(NC(=O)c3ccccc3)nc2c1` [CBK287614], the viability at 28.5 h, 10 µM was 104%.
Then `O=C(Nc1nc2c(F)cc(F)cc2s1)c1ccc(F)cc1` [CBK287617], with 101%; and `O=C(CSc1ccc2nnc(-c3ccccn3)n2n1)N1CCCCC1` [CBK287621], with 101%.
Then `CCCCC(Sc1ccc2nnc(-c3ccccn3)n2n1)C(=O)O` (centres unmarked) [CBK287622], with 112%; and `CCC(Sc1ccc2nnc(-c3cccnc3)n2n1)C(=O)O` (centres unmarked) [CBK287623], with 110%; and `CC(=O)Nc1nnc(SCC(=O)NCc2ccc3c(c2)OCO3)s1` [CBK287626], with 94%.
The figure for `NC(=O)CSc1nnc(NC(=O)c2ccc(Cl)cc2Cl)s1` [CBK287627] is 86.4%.
With `NC(=O)CSc1nnc(NC(=O)c2ccccc2)s1` [CBK287628], the viability at 28.5 h, 10 µM came to 92.8%.
Take `Cc1ccc(C(=O)NCCc2nnc3ccc(Cl)nn23)cc1` [CBK287636]: the viability at 28.5 h, 10 µM amounted to 89.5%.
Then `c1ccc(CSc2ccc(-c3ccncc3)nn2)nc1` [CBK287638], with 101%.
For `CCn1c(SCc2cccnc2)nc2c(c1=O)SC(C)C2` (centres unmarked) [CBK287643], the viability at 28.5 h, 10 µM turned out to be 87.7%.
With `COc1ccnc2c1c(=O)n(Cc1ccc(Cl)cc1)c(=O)n2C` [CBK287645], the viability at 28.5 h, 10 µM is 66.9%.
As for `Fc1ccc2nc(NCC3CCCO3)sc2c1` (centres unmarked) [CBK287647], the viability at 28.5 h, 10 µM was determined as 110%.
For the compound `COc1ccc(NC(=O)Cc2csc(NC(=O)c3ccco3)n2)c(OC)c1` [CBK287649], the viability at 28.5 h, 10 µM was 91.7%.
The figure for `Cc1cc(NC(=O)c2ccccc2)n(-c2nc(C)c(C)c(=O)[nH]2)n1` [CBK287655] is 105%; for `Cc1ccc(S(=O)(=O)Nc2ccc3c(c2)CC(=O)N3)cc1` [CBK287657] it is 92.1%.
Then `O=C(Cc1ccccc1)Nc1nnc(Cc2ccc3c(c2)OCCO3)o1` [CBK287661], with 94.2%; and `O=C(c1ccccc1)N1CCN(c2ccc(-n3cccn3)nn2)CC1` [CBK287662], with 92.2%; and `COc1ccc(NC(=O)c2cc3nc(C)ccc3o2)cc1` [CBK287663], with 102%.
Then `Cc1ccc(Nc2nc(N3CCOCC3)nc3nccnc23)cc1` [CBK287664], with 120%; and `Cc1nc2sccn2c(=O)c1NC(=O)c1ccccn1` [CBK287665], with 87.2%.
Take `O=C(Cn1c(=O)n(Cc2cccnc2)c(=O)c2ncccc21)NC1CCCC1` [CBK287666]: the viability at 28.5 h, 10 µM came out at 103%.
The figure for `COc1ccc(NC(=O)c2cc(C(C)C)n(-c3nc4ccccc4s3)n2)cc1` [CBK287667] is 100%; for `Cc1ccc2nc(NC(=O)c3cc(C)n(C)n3)sc2c1` [CBK287668] it is 83.9%.
Then `CNC(=O)Cn1nc(C)c2cnn(-c3ccccc3)c2c1=O` [CBK287669], with 92.8%; and `Cc1ccc(CC(=O)N2CC(=O)Nc3ccccc32)cc1` [CBK287670], with 86.2%.
`Cc1cnc2n(c1=O)C(CC(=O)NCc1ccncc1)CS2` (centres unmarked) [CBK287671]: the viability at 28.5 h, 10 µM was 111%.
